This is an account of results in patent US20230172923A1, “METHODS OF TREATING CYTOKINE-RELATED ADVERSE EVENTS” (BRISTOL-MYERS SQUIBB COMPANY, priority 2020, published 2023).

What all share (assay type): cell-based, human
One experiment deals with TNF-alpha. As to the kind of experiment: LPS-induced TNF-alpha secretion from PBMCs, overnight pre-treatment (MSD). Particulars: overnight 1000 nM lenalidomide, 100 nM pomalidomide, 10 nM iberdomide or 1 nM Compound 1; LPS 24 hours. How it is done: Fresh PBMCs isolated from healthy volunteers were seeded at a concentration of 1×10^6 cells/ml and treated with the indicated concentration of IMiD drugs/CELMoD agents or DMSO overnight before stimulation with the indicated concentration of LPS. After 24 hours, the cell culture media was collected and IL-6, TNF-alpha and IL1-beta levels in the supernatant were assessed using an MSD assay. ULOQ = Upper limit of quantification.
Fresh peripheral blood mononuclear cells (PBMCs) were isolated from the blood (buffy coat) of healthy human volunteers by Ficoll based cell separation. The isolated PBMCs were seeded at a concentration of 1×10^6 cells/ml and treated with 1000 nM lenalidomide, 100 nM pomalidomide, 10 nM iberdomide, 1 nM Compound 1 (CC-92480) or control DMSO, overnight (~17 hours). The next morning, the PBMCs were stimulated with various concentrations of LPS (Lipopolysaccharides from Escherichia coli O111:B4).
After 24 hours, the cell culture media was collected from the control and stimulated cells, spun down at 300 g for 5 minutes to remove cells and the supernatant was subjected to cytokine analysis to quantify secreted levels of IL-6, TNF-alpha (TNF-α) and IL1-beta (IL-1β) using an MSD assay (see e.g. FIGS. 8A-C).

The test system of the next experiment is OPM-2 cells. The experiment in a line: CC-93269 mediated cytotoxicity assay with chronically stimulated T-cells, OPM-2 target cells (IncuCyte). The conditions noted are these: anti-CD3/CD28 7 days with 100 nM pomalidomide, 10 nM iberdomide or 1 nM CC-92480; CC-93269 47 pM; E:T 1:2. How it is done:
Cell growth kinetics of A) NCI-H929 and B) OPM-2 cells in CC-93269 (47 pM) cytotoxicity assays on the IncuCyte® S3 Live-Cell Analysis System. Healthy donor T-cells were used as effector cells with or without chronic stimulation with anti-CD3/CD28 (7 days) in the presence of DMSO or CM agents (100 nM Pomalidomide, 10 nM CC-220 or 1 nM CC-92480). T-cells and NCI-H929 cells were co-cultured at E:T ratios of 1:4 (NCI-H929) or 1:2 (OPM-2). […] In contrast, prior exposure to CM agents prevented functional TBMS cell exhaustion and CC-93269 activity was similar or better to those observed with freshly thawed T-cells. Values shown represent the mean ± standard deviation of AUC values of 2-3 replicates from the same experiment.
To evaluate the effects of Cereblon modulating (CM) agents on T-cell function after chronic stimulation (i.e. mimicking T cell exhaustion), CD3+ enriched healthy donor T-cells were stimulated with anti-CD3/CD28 in the presence of DMSO (control), 100 nM pomalidomide, 10 nM iberdomide (CC-220) or 1 nM Compound 1 (CC-92480) for 7 days. Prolonged and repetitive anti-CD3/CD28 stimulation of T-cells results in functional T-cell exhaustion in vitro.
The chronically stimulated T-cells were then used in CC-93269 mediated cytotoxicity assays with NCI-H929 or OPM-2 multiple myeloma (MM) target cells. The T-cells were washed to remove compounds, and mixed with fluorescently labelled MM cell lines (NCI-H929, OPM-2) at optimized effector-to-target (E:T) ratios (1:2 or 1:4) in the presence of fixed concentrations of CC-93269 (47 pM). Freshly thawed T-cells (i.e. non-exhausted T-cells) from the same donor were used as control effector cells. In this experimental cytotoxicity assay setup, the number of target cells was continuously monitored using the IncuCyte® S3 Live-Cell Analysis System for a minimum of 10 days. Cell culture supernatants were taken from wells from subsequent CC-93269 mediated cytotoxicity assays at 3 days after mixing with MM target cells. CD3+ T cells from 2 or 3 independent healthy donors were tested for each MM cell line.

The test system of the next experiment is IL-6. The experiment in a line: LPS-induced IL-6 secretion from isolated macrophages (M0) (MSD). The conditions noted are these: overnight (~17 hours) 1000 nM lenalidomide, 100 nM pomalidomide, 10 nM iberdomide or 1 nM Compound 1; then LPS. How it is done: Monocytes from healthy volunteers were seeded at a concentration of 3×10^5 cells/ml for 4 days with RPMI 1640 media containing M-CSF (50 ng/mL) (50% media replaced after 2 days) to obtain naive macrophages (M0). At the end of day 4, macrophages were treated with the indicated concentration of IMiD/CELMoD agents overnight (~17 hours). The next morning, the macrophages were stimulated with the indicated concentration of LPS for 8 hours, before IL-6 levels in the supernatant were assessed using an MSD assay.
Peripheral blood mononuclear cells (PBMCs) were isolated from the blood of two healthy human donors by Ficoll cell separation, and then monocytes were isolated from these PBMCs by positive selection using MACS […] magnetic microbeads. The isolated monocytes were seeded at a concentration of 3×10^5 cells/ml and incubated for 4 days with RPMI 1640 media containing M-CSF (50 ng/mL) (50% media replaced after 2 days) to obtain naive macrophages (M0). At the end of day 4, the macrophages were incubated overnight (~17 hours) with 1000 nM lenalidomide, 100 nM pomalidomide, 10 nM iberdomide or 1 nM Compound 1, or control DMSO (0.001%), before stimulation with various concentrations of LPS for IL-6 secretion.
After 6 hours, the cell culture was spun down at 300 g for 5 minutes to remove cells, and the supernatant was subjected to MSD analysis to quantify secreted IL-6.

The subject of a further experiment is IL-8. The experiment in a line: LPS-stimulated PBMC cytokine production, multiplex cytokine analysis: IL-8. Particulars: Homo sapiens; PBMC 2×10^6 cells/ml, compound 1 hour, then 1 ng/ml LPS 18 hours. The protocol: Peripheral blood mononuclear cells (PBMCs) were isolated from the blood of healthy human donors by Ficoll cell separation. The PBMCs were seeded at a concentration of 2×10^6 cells/ml and treated for 1 hour at 37° C. with various concentrations of IMiD compounds or control DMSO (0.25%), before stimulation with 1 ng/ml LPS for 18 hours at 37° C.
Supernatant samples were subjected to multiplex cytokine analysis (Luminex IS100 instrument) to quantify secreted levels of IL-6, IL-8, IL1-beta (IL-1β), GM-CSF, MDC, MIP-1alpha (MIP-1α), MIP-1beta (MIP-1β) and TNF-alpha (TNF-α) (see e.g. FIGS. 7A-C).
IC50 (half maximal inhibitory concentration) values were calculated to measure the potency of each IMiD compound in inhibiting LPS-stimulated secretion of each cytokine (see Table 25).

Another experiment deals with IL-1β. As to the kind of experiment: LPS-stimulated PBMC cytokine production, multiplex cytokine analysis: IL-1β. The conditions noted are these: Homo sapiens, PBMC, PBMC 2×10^6 cells/ml, compound 1 hour, then 1 ng/ml LPS 18 hours. How it is done: Peripheral blood mononuclear cells (PBMCs) were isolated from the blood of healthy human donors by Ficoll cell separation. […] Supernatant samples were subjected to multiplex cytokine analysis (Luminex IS100 instrument) to quantify secreted levels of IL-6, IL-8, IL1-beta (IL-1β), GM-CSF, MDC, MIP-1alpha (MIP-1α), MIP-1beta (MIP-1β) and TNF-alpha (TNF-α) (see e.g. FIGS. 7A-C). IC50 (half maximal inhibitory concentration) values were calculated to measure the potency of each IMiD compound in inhibiting LPS-stimulated secretion of each cytokine (see Table 25).

Structures are written as SMILES. Bounds are passed on as bounds.

In general, IC50 refers to the concentration that inhibits the measured activity by half. A high value points to a need for much substance.

As to `N#Cc1ccc(N2CCN(Cc3ccc(COc4cccc5c4CN(C4CCC(=O)NC4=O)C5=O)cc3)CC2)c(F)c1` (stereo not drawn) [Compound 1, 4-(4-(4-(((2-(2,6-dioxopiperidin-3-yl)-1-oxoisoindolin-4-yl)oxy)methyl)benzyl)piperazin-l-yl)-3-fluorobenzonitrile], the “LPS-induced secretion of TNF-α from PBMCs” value (from here on “LPS-induced secretion”) in the experiment with TNF-alpha is “reduces”. Besides, the “cytolytic function of chronically stimulated T-cells in CC-93269-directed killing of OPM-2 cells” value (“cytolytic function” for short) in the experiment with OPM-2 cells is given as “beneficial effects on the cytolytic function of T-cells”. Also, the “LPS-induced IL-6 secretion from macrophages” value (shortened to “LPS-induced IL-6 secretion”) in the experiment on IL-6 is “diminished”.

Take `O=C1CC[C@H](N2Cc3c(OCc4ccc(CN5CCOCC5)cc4)cccc3C2=O)C(=O)N1` [Iberdomide, (S)-3-(4-((4-(morpholinomethyl)benzyl)oxy)-1-oxoisoindolin-2-yl)piperidine-2,6-dione]: in the experiment on TNF-alpha, the “LPS-induced secretion” value is listed as “reduces”. For the same compound, the results for the half-inhibitory concentration (IC50) in the experiment on IL-8 and in the experiment with IL-1β were greater than 10 µM and 0.00046 µM, respectively. Also, in the experiment with OPM-2 cells, the “cytolytic function” value is “beneficial effects on the cytolytic function of T-cells”. Also, the “LPS-induced IL-6 secretion” value with IL-6 is listed as “diminished”.

Regarding `Nc1cccc2c1CN(C1CCC(=O)NC1=O)C2=O` (centres unmarked) [Lenalidomide, 3-(4-amino-1-oxo-2,3-dihydro-1H-isoindol-2-yl) piperidine-2,6-dione], in the experiment with TNF-alpha, the “LPS-induced secretion” value is reported as “reduces”. For the same compound, the figures for the IC50 in the experiment on IL-8 and with IL-1β were greater than 10 µM and 0.39 µM, respectively. In addition, in the experiment with IL-6, the “LPS-induced IL-6 secretion” value is on record as “diminished”.

Turning to `Nc1cccc2c1C(=O)N(C1CCC(=O)NC1=O)C2=O` (centres unmarked) [Pomalidomide, 4-amino-2-(2,6-dioxopiperidine-3-yl)isoindoline-1,3-dione], the “LPS-induced secretion” value with TNF-alpha was “reduces”. In addition, the IC50 was 2.9 µM in the experiment with IL-8 and 0.047 µM in the experiment with IL-1β. Moreover, the “cytolytic function” value in the experiment with OPM-2 cells is listed as “beneficial effects on the cytolytic function of T-cells”. In addition, in the experiment on IL-6, the “LPS-induced IL-6 secretion” value was “diminished”.
